Test results: patent US20110319491A1, “ANHYDROUS DEPIGMENTING COMPOSITIONS COMPRISING, WITHIN THE FATTY PHASE THEREOF, A SOLUBILIZED PHENOLIC COMPOUND AND A RETINOID” (GALDERMA RESEARCH & DEVELOPMENT, priority 2009, published 2011)

Tests used:
Format in all cases: physicochemical
[1] = Stability of rucinol in solvent oils and lipophilic surfactants (HPLC assay); conditions: T0 = 100%
Excerpt: Assay technique by HPLC against reference substance.
The initial time (T0) is considered as 100%.

[2] = Chemical stability of the formulations (HPLC assay of the active agents); conditions: in composition of Example 3
Protocol: The chemical stability is measured by assaying the active agents by external calibration in HPLC and the results are expressed as a % of […] relative to the theoretical value.

[3] = Rucinol solubilities in solvents (HPLC)

CCCCc1ccc(O)cc1O [Rucinol, 4-butylresorcinol]
T + 1 month (% LC) ([1]; in Arlamol E, 40° C.): 94.4 % LC
T + 1 month (% LC) ([1]; in Arlamol E, RT): 95 % LC
T + 1 month (% LC) ([1]; in Cremophor EL, 40° C.): 96.2 % LC
T + 1 month (% LC) ([1]; in Cremophor EL, RT): 96 % LC
T + 1 month (% LC) ([1]; in Ethanol, 40° C.): 105 % LC
T + 1 month (% LC) ([1]; in Ethanol, RT): 100.4 % LC
T + 1 month (% LC) ([1]; in Labrasol, 40° C.): 100.8 % LC
T + 1 month (% LC) ([1]; in Labrasol, RT): 97.8 % LC
T + 1 month (% LC) ([1]; in Miglyol, 40° C.): 99.8 % LC
T + 1 month (% LC) ([1]; in Miglyol, RT): 91.2 % LC
Chemical stability: rucinol assay, % relative to the theoretical value ([2]; 4° C., T + 1 M): 99.4%
Chemical stability: rucinol assay, % relative to the theoretical value ([2]; 4° C., T + 2 M): 97.4%
Chemical stability: rucinol assay, % relative to the theoretical value ([2]; 40° C., T + 1 M): 98.8%
Chemical stability: rucinol assay, % relative to the theoretical value ([2]; 40° C., T + 2 M): 97.8%
Chemical stability: rucinol assay, % relative to the theoretical value ([2]; RT, T0): 98.1%
Chemical stability: rucinol assay, % relative to the theoretical value ([2]; RT, T + 1 M): 100.6%
Chemical stability: rucinol assay, % relative to the theoretical value ([2]; RT, T + 2 M): 101.6%
Max. solubility (% w/w) ([3]; in Arlamol E): 48.2 % w/w
Max. solubility (% w/w) ([3]; in Caprylic capric triglycerides): 47.8 % w/w
Max. solubility (% w/w) ([3]; in Castor oil): 46.4 % w/w
Max. solubility (% w/w) ([3]; in Cremophor EL): 49.7 % w/w
Max. solubility (% w/w) ([3]; in Crodamol DA): 64.1 % w/w
Max. solubility (% w/w) ([3]; in Ethanol): >75.5 % w/w
Max. solubility (% w/w) ([3]; in Glycerol): 63.8 % w/w
Max. solubility (% w/w) ([3]; in Labrasol): 60.9 % w/w
Max. solubility (% w/w) ([3]; in Lauroglycol): 52.8 % w/w
Max. solubility (% w/w) ([3]; in PEG 400): 61.6 % w/w
Max. solubility (% w/w) ([3]; in Propylene glycol): >67.7 % w/w
Solubility of rucinol (in words) ([3]; in all the solvents tested): very good solubility
